Reference: US4452982A, “Process for the preparation of nitrogen-bridgehead condensed pyrimidine compounds, and pharmaceutical compositions containing them” (Chinoin Gyogyszer es Vegyeszeti Termekek Gyara R.T., priority 1979, dated 1984)

What was measured:
allergic reactions = assay: PCA test-method (Ovary), antiallergic activity; type: in vivo; settings: for ED50: iv
Procedure: The test is carried out by the PCA test-method (Ovary: J. Immun. 81, 355 (1958)) and the Church-test (British J. Pharm. 46, 56-66 (1972); Immunology 29, 527-534 (1975)) and for comparison disodium chromoglycate is used.

allergic symptoms = settings: antiasthmatic agent, cited from earlier work

Compound `CC1CC=C(Nc2ccccc2)c2ncc(C(=O)O)c(=O)n21` (stereo not drawn) [9-anilino-6-methyl-4-oxo-6,7-dihydro-4H-pyrido[1,2-a]pyrimidine-3-carboxylic acid] has an ED50 (allergic reactions) of 1.3 µmol/kg.
In the case of `O=C(O)c1cc(=O)c2c(OCC(O)COc3cccc4oc(C(=O)O)cc(=O)c34)cccc2o1` [disodium chromoglycolate], the “effect by inhaler (background statement)” value (allergic symptoms; inhaler) is listed as “produces the desired effect only by using an inhaler”, the “oral activity (background statement)” value (allergic symptoms; orally) is listed as “not active orally” and the ED50 (allergic reactions) is listed as 1 µmol/kg. For the same compound, the “oral activity / route of effectiveness” value (allergic reactions; oral vs. intravenous, conclusion from Table I) was “effective only when administered intravenously”.
In the case of `Cc1ccccc1NC1=CCC(C)n2c1ncc(C(=O)O)c2=O` (stereo not drawn) [6-methyl-9-(2-methylphenylamino)-4-oxo-6,7-dihydro-4H--pyrido[1,2-a]pyrimidine-3-carboxylic acid], the ED50 (allergic reactions) is reported as 5.4 µmol/kg.
